Test results taken from PubChem BioAssay (NCI).
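Abbreviation: GI50, concentration required for 50% inhibition of growth. TGI denotes the concentration required for complete inhibition of growth.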

Columns and labels:
Assay in all cases: growth of human tumour cells (NCI), 384-well format
MOLT-4 leukemia = system: MOLT-4 leukemia
SN12C renal = system: SN12C renal
EKVX NSCLC = system: EKVX NSCLC
KM12 colon = system: KM12 colon
PC-3 prostate = system: PC-3 prostate
CAKI-1 renal = system: CAKI-1 renal
SF-295 CNS = system: SF-295 CNS
NCI-H226 lung = system: NCI-H226 lung
NCI/ADR-RES ovarian = system: NCI/ADR-RES ovarian
DU-145 prostate = system: DU-145 prostate
MALME-3M melanoma = system: MALME-3M melanoma
SK-MEL-28 melanoma = system: SK-MEL-28 melanoma
SK-MEL-5 melanoma = system: SK-MEL-5 melanoma
MDA-MB-468 breast = system: MDA-MB-468 breast
T-47D breast = system: T-47D breast
RXF 393 renal = system: RXF 393 renal
A498 renal = system: A498 renal
COLO 205 colon = system: COLO 205 colon
HOP-92 NSCLC = system: HOP-92 NSCLC
SR leukemia = system: SR leukemia
SNB-19 CNS = system: SNB-19 CNS
SF-268 CNS = system: SF-268 CNS
UO-31 renal = system: UO-31 renal
TK-10 renal = system: TK-10 renal
OVCAR-3 ovarian = system: OVCAR-3 ovarian
CCRF-CEM leukemia = system: CCRF-CEM leukemia
OVCAR-4 ovarian = system: OVCAR-4 ovarian
BT-549 breast = system: BT-549 breast
HCC-2998 colon = system: HCC-2998 colon
UACC-257 melanoma = system: UACC-257 melanoma
HT29 colon = system: HT29 colon
SK-OV-3 ovarian = system: SK-OV-3 ovarian
M14 melanoma = system: M14 melanoma
SW-620 colon = system: SW-620 colon
U251 glioblastoma = system: U251 glioblastoma
SNB-75 CNS = system: SNB-75 CNS
NCI-H23 lung = system: NCI-H23 lung
SF-539 CNS = system: SF-539 CNS
MCF7 breast = system: MCF7 breast
786-0 renal = system: 786-0 renal
NCI-H522 lung = system: NCI-H522 lung
RPMI-8226 leukemia = system: RPMI-8226 leukemia
HCT-116 colon = system: HCT-116 colon
OVCAR-8 ovarian = system: OVCAR-8 ovarian
UACC-62 melanoma = system: UACC-62 melanoma
MDA-MB-435 melanoma = system: MDA-MB-435 melanoma
K-562 leukemia = system: K-562 leukemia
HS 578T breast = system: HS 578T breast
HCT-15 colon = system: HCT-15 colon
NCI-H460 NSCLC = system: NCI-H460 NSCLC
MDA-MB-231 breast = system: MDA-MB-231 breast
IGROV1 ovarian = system: IGROV1 ovarian
HOP-62 NSCLC = system: HOP-62 NSCLC
LOX IMVI melanoma = system: LOX IMVI melanoma
A549 NSCLC = system: A549 NSCLC
ACHN renal = system: ACHN renal
HL-60(TB) leukemia = system: HL-60(TB) leukemia
NCI-H322M lung = system: NCI-H322M lung

Cc1nc(-c2cn3c(n2)-c2ccc(-c4cnn(C(C)(C)C(N)=O)c4)cc2OCC3)n(C(C)C)n1
GI50 (MOLT-4 leukemia): 0.0746 µM | TGI (MOLT-4 leukemia): 1.12 µM | GI50 (SN12C renal): 0.27 µM | TGI (SN12C renal): > 100 µM | GI50 (EKVX NSCLC): 0.756 µM | TGI (EKVX NSCLC): 15.4 µM | GI50 (KM12 colon): 3.72 µM | TGI (KM12 colon): 17 µM | GI50 (PC-3 prostate): 0.396 µM | TGI (PC-3 prostate): 12.2 µM | GI50 (CAKI-1 renal): 0.342 µM | TGI (CAKI-1 renal): 31.8 µM | GI50 (SF-295 CNS): 0.95 µM | TGI (SF-295 CNS): 9 µM | GI50 (NCI-H226 lung): 2.82 µM | TGI (NCI-H226 lung): 41 µM | GI50 (NCI/ADR-RES ovarian): 13.2 µM | TGI (NCI/ADR-RES ovarian): 52.7 µM | GI50 (DU-145 prostate): 2.16 µM | TGI (DU-145 prostate): 17.8 µM | GI50 (MALME-3M melanoma): 0.164 µM | TGI (MALME-3M melanoma): 4.21 µM | GI50 (SK-MEL-28 melanoma): 0.484 µM | TGI (SK-MEL-28 melanoma): > 100 µM | GI50 (SK-MEL-5 melanoma): 1.26 µM | TGI (SK-MEL-5 melanoma): 9.2 µM | GI50 (MDA-MB-468 breast): 0.147 µM | TGI (MDA-MB-468 breast): 1.34 µM | GI50 (T-47D breast): < 0.01 µM | TGI (T-47D breast): 0.0399 µM | GI50 (RXF 393 renal): 1.99 µM | TGI (RXF 393 renal): 11.3 µM | GI50 (A498 renal): 1.96 µM | TGI (A498 renal): 12.4 µM | GI50 (COLO 205 colon): 0.396 µM | TGI (COLO 205 colon): 25.4 µM | GI50 (HOP-92 NSCLC): 0.226 µM | TGI (HOP-92 NSCLC): 29.9 µM | GI50 (SR leukemia): 0.785 µM | TGI (SR leukemia): 2.53 µM | GI50 (SNB-19 CNS): 13.8 µM | TGI (SNB-19 CNS): > 100 µM | GI50 (SF-268 CNS): 3.31 µM | TGI (SF-268 CNS): 29.5 µM | GI50 (UO-31 renal): 0.848 µM | TGI (UO-31 renal): > 100 µM | GI50 (TK-10 renal): 0.387 µM | TGI (TK-10 renal): 19.2 µM | GI50 (OVCAR-3 ovarian): 0.398 µM | TGI (OVCAR-3 ovarian): 9.21 µM | GI50 (CCRF-CEM leukemia): 0.343 µM | TGI (CCRF-CEM leukemia): 13.7 µM | GI50 (OVCAR-4 ovarian): 15.2 µM | TGI (OVCAR-4 ovarian): 93.7 µM | GI50 (BT-549 breast): 1.67 µM | TGI (BT-549 breast): 19.9 µM | GI50 (HCC-2998 colon): 0.831 µM | TGI (HCC-2998 colon): 14 µM | GI50 (UACC-257 melanoma): 7.34 µM | TGI (UACC-257 melanoma): 40.7 µM | GI50 (HT29 colon): 0.085 µM | TGI (HT29 colon): 16.6 µM | GI50 (SK-OV-3 ovarian): 0.0291 µM | TGI (SK-OV-3 ovarian): 1.95 µM | GI50 (M14 melanoma): 7.41 µM | TGI (M14 melanoma): 32.1 µM | GI50 (SW-620 colon): 12.5 µM | TGI (SW-620 colon): > 100 µM | GI50 (U251 glioblastoma): 3.56 µM | TGI (U251 glioblastoma): > 100 µM | GI50 (SNB-75 CNS): 0.221 µM | TGI (SNB-75 CNS): 15.3 µM | GI50 (NCI-H23 lung): 11.3 µM | TGI (NCI-H23 lung): 50.5 µM | GI50 (SF-539 CNS): 1.09 µM | TGI (SF-539 CNS): 20.2 µM | GI50 (MCF7 breast): 0.0152 µM | TGI (MCF7 breast): 15.1 µM | GI50 ([…]-0 renal): 2.6 µM | TGI (786-0 renal): 87.3 µM | GI50 (NCI-H522 lung): 3.56 µM | TGI (NCI-H522 lung): 27.3 µM | GI50 (RPMI-8226 leukemia): 3.21 µM | TGI (RPMI-8226 leukemia): 13.3 µM | GI50 (HCT-116 colon): 1.92 µM | TGI (HCT-116 colon): 18.3 µM | GI50 (OVCAR-8 ovarian): 3.01 µM | TGI (OVCAR-8 ovarian): 84 µM | GI50 (UACC-62 melanoma): 0.71 µM | TGI (UACC-62 melanoma): 7.5 µM | GI50 (MDA-MB-435 melanoma): 6.33 µM | TGI (MDA-MB-435 melanoma): 53.2 µM | GI50 (K-562 leukemia): 12.9 µM | TGI (K-562 leukemia): 84.8 µM | GI50 (HS 578T breast): 0.567 µM | TGI (HS 578T breast): 12.5 µM | GI50 (HCT-15 colon): 1.59 µM | TGI (HCT-15 colon): 23.6 µM | GI50 (NCI-H460 NSCLC): 0.134 µM | TGI (NCI-H460 NSCLC): 11.4 µM | GI50 (MDA-MB-231 breast): 5.79 µM | TGI (MDA-MB-231 breast): > 100 µM | GI50 (IGROV1 ovarian): 0.0125 µM | TGI (IGROV1 ovarian): 0.0541 µM | GI50 (HOP-62 NSCLC): 5.99 µM | TGI (HOP-62 NSCLC): 91.3 µM | GI50 (LOX IMVI melanoma): 1.99 µM | TGI (LOX IMVI melanoma): 15.4 µM | GI50 (A549 NSCLC): 1.43 µM | TGI (A549 NSCLC): 14.7 µM | GI50 (ACHN renal): 1.36 µM | TGI (ACHN renal): > 100 µM | GI50 (HL-60(TB) leukemia): < 0.01 µM | TGI (HL-60(TB) leukemia): 0.115 µM | GI50 (NCI-H322M lung): 0.312 µM | TGI (NCI-H322M lung): 14.2 µM
